Measurements taken from patent US8846571B2, “Herbicidal compositions containing benzoylpyrazole compounds” (priority 2008, dated 2014).
Like-named read-outs stand apart in the source and are kept apart here.

What was measured:
[1] = test system: crabgrass; assay: Foliar treatment pot test (Example 1), visual growth inhibition of crabgrass; format: in vivo
Description: (§1) When the herbicidal activity in a case where two active ingredients are combined, is larger than the simple sum of the respective herbicidal activities of the two active ingredients (the expected activity), it is called a synergistic effect. The activity expected by the combination of two active ingredients can be calculated as follows (Colby S. R., “Weed”, vol. 15, p. 20-22, 1967). E=α+β−(α×β÷100) where
(§2) Upland field soil was put into a 1/1,000,000 hectare pot, and seeds of various plants were sown. When the respective plants reached predetermined leaf stage, herbicidal compositions in predetermined amounts were diluted with water in an amount corresponding to 300 L/ha and applied for foliar treatment by a small sprayer.
(§3) Further, in accordance with the above Colby's formula, the growth inhibition rate (calculated value) was calculated. In Tables, with respect to the compound Q, Compound Nos. in Table 1 are described, and with respect to other herbicidal compounds, common names are described.

[2] = test system: velvetleaf; assay: Foliar treatment pot test (Example 1), visual growth inhibition of velvetleaf; format: in vivo, velvetleaf (Abutilon theophrasti MEDIC.)
Description: as §1, §2, §3

[3] = Foliar treatment pot test (Example 1), plant name misprinted as 'days after treatment'; format: in vivo; conditions: 4.0-5.0 leaf stage
Description: as §1, §2, §3

[4] = test system: prickly sida; assay: Foliar treatment pot test (Example 1), visual growth inhibition of prickly sida; format: in vivo, prickly sida (Side spinosa L.); conditions: read-out: Growth inhibition rate (%) Measured value
Description: as §1, §2, §3

[5] = test system: various plants; assay: Foliar treatment pot test (Example 1) on various plants; format: in vivo; conditions: Setaria, 336 h, fiant foxtail, 4.0-5.0 leaf stage, 14 days after treatment, read-out: Growth inhibition rate (%) of fiant foxtail, Measured value
Description: as §1, §2, §3

[6] = 504 h, 21 days after treatment, read-out: Growth inhibition rate (%) Measured value

COC(=O)c1c(Cl)nn(C)c1S(=O)(=O)NC(=O)Nc1nc(OC)cc(OC)n1 [Halofulfuron-methyl]
Growth inhibition rate (%) of crabgrass, Measured value ([1]; 5.0-5.5 leaf stage, 14 days after treatment, 20 g/ha): 0%

CCOCCN(C(=O)CCl)C(=C(C)C)c1ccccc1 [Pethoxamid, pethoxamid, reference compound]
Growth inhibition rate (%) Measured value ([1]; crabgrass 4.4-5.0 leaf stage, 13 days after treatment, 200 g/ha): 0%
Growth inhibition rate (%) Measured value ([2]; velvetleat 3.3-4.2 leaf stage, 13 days after treatment, 200 g/ha): 0%

N.O=C(O)CNCP(=O)(O)O [Glyphosate-ammonium, glyphosate-ammonium]
Growth inhibition rate (%) Measured value ([1]; crabgrass 5.0-5.5 leaf stage, 21 days after treatment, 100 g/ha): 10%

CCc1cccc(C)c1N(C(=O)CCl)[C@@H](C)COC [S-Metolachlor, S-metolachlor]
Growth inhibition rate (%) of crabgrass, Measured value ([1]; 4.0-5.0 leaf stage, 14 days after treatment, 150 g/ha): 0%
Growth inhibition rate (%) Measured value ([1]; crabgrass 4.0-5.1 leaf stage, 21 days after treatment, 300 g/ha): 0%
Growth inhibition rate (%) Measured value ([1]; crabgrass 5.0-6.0 leaf stage, 14 days after treatment, 800 g/ha): 0%
Growth inhibition rate (%) Measured value ([2]; velvetleaf 3.0-3.5 leaf stage, 21 days after treatment, 300 g/ha): 0%

CCn1ncc(C(=O)c2ccc(S(C)(=O)=O)c(OCCOC)c2C)c1OC(C)OC(=O)OC (stereo not drawn) [NO. 4, 1-(1-ethyl-4-(3-(2-methoxyethoxy)-2-methyl-4-(methylsulfonyl)benzoyl)-1H-pyrazol-5-yloxy)ethyl methyl carbonate]
inhibition at […] ([3]; 504 h, 21 days after treatment, 3.5 g/ha, read-out: Growth inhibition rate (%) of days after treatment, Measured value): 40%
inhibition at 7 g/ha ([3]; 504 h, 21 days after treatment, 7 g/ha, read-out: Growth inhibition rate (%) of days after treatment, Measured value): 60%
inhibition at 5 g/ha ([1]; Digitaria sanguinalis, foliar, 336 h, crabgrass 3.5-4.3 leaf stage, 14 days after treatment, 5 g/ha, read-out: Growth inhibition rate (%) Measured value): 90%
inhibition at 15 g/ha ([1]; Digitaria sanguinalis, foliar, 552 h, 4.0-5.1 leaf stage, 23 days after treatment, 15 g/ha, read-out: Growth inhibition rate (%) of crabgrass, Measured value): 85%
Growth inhibition rate (%) of velvetleaf, Measured value ([2]; 3.0-4.0 leaf stage, 14 days after treatment, 15 g/ha): 80%
inhibition at 15 g/ha ([2]; Abutilon theophrasti, foliar, 336 h, 3.0-4.0 leaf stage, 14 days after treatment, 15 g/ha, read-out: Growth inhibition rate (%) of velvetleaf, Measured value): 73%
inhibition at 5 g/ha ([2]; Abutilon theophrasti, foliar, 504 h, velvetleaf 3.1-3.4 leaf stage, 21 days after treatment, 5 g/ha, read-out: Growth inhibition rate (%) Measured value): 94%
inhibition at 15 g/ha ([2]; Abutilon theophrasti, foliar, 504 h, velvetleaf 3.8-4.4 leaf stage, 21 days after treatment, 15 g/ha, read-out: Growth inhibition rate (%) Measured value): 75%
inhibition at 15 g/ha ([2]; Abutilon theophrasti, foliar, 528 h, velvetleaf 3.3-3.8 leaf stage, 22 days after treatment, 15 g/ha, read-out: Growth inhibition rate (%) Measured value): 89%
inhibition at 7 g/ha ([2]; Abutilon theophrasti, foliar, 552 h, 3.0-3.5 leaf stage, 23 days after treatment, 7 g/ha, read-out: Growth inhibition rate (%) of velvetleaf, Measured value): 75%
inhibition at 15 g/ha ([2]; Abutilon theophrasti, foliar, 552 h, 3.0 to 3.5 leaf stage, 23 days after treatment, 15 g/ha, read-out: Growth inhibition rate (%) of velvetleaf, Measured value): 93%
inhibition at 15 g/ha ([2]; Abutilon theophrasti, foliar, 576 h, 3.2-4.1 leaf stage, 24 days after treatment, 15 g/ha, read-out: Growth inhibition rate (%) of velvetleaf, Measured value): 93%
inhibition at 75 g/ha ([4]; 480 h, prickly sida 1.5-2.4 leaf stage, 20 days after treatment, 75 g/ha): 55%
inhibition at 7 g/ha ([5]; 7 g/ha): 75%

CCCCCCCCSC(=O)Oc1cc(Cl)nnc1-c1ccccc1 [Pyridate, pyridate, reference compound]
inhibition at 100 g/ha ([3]; 504 h, 21 days after treatment, 100 g/ha, read-out: Growth inhibition rate (%) of days after treatment, Measured value): 0%
inhibition at 100 g/ha ([5]; 100 g/ha): 0%

CCNc1nc(Cl)nc(NC(C)C)n1 [Atrazine, atrazine]
inhibition at 125 g/ha [3, 6]: 0%
inhibition at 63 g/ha ([4]; 504 h, prickly sida 3.0-3.3 leaf stage, 21 days after treatment, 63 g/ha): 30%
inhibition at 125 g/ha ([4]; 504 h, prickly sida 3.0-3.3 leaf stage, 21 days after treatment, 125 g/ha): 45%

CCOC(=O)OC(C)Oc1c(C(=O)c2ccc(S(C)(=O)=O)c(OCCOC)c2C)cnn1C (stereo not drawn) [NO. 2]
Growth inhibition rate (%) Measured value ([2]; velvetleaf 4.0-4.3 leaf stage, 22 days after treatment, 3.75 g/ha): 0%

COc1c(Cl)ccc(Cl)c1C(=O)O [Dicamba, dicamba]
inhibition at 200 g/ha ([3]; 336 h, 14 days after treatment, 200 g/ha, read-out: Growth inhibition rate (%) Measured value): 0%

CS(=O)(=O)c1ccc(C(=O)C2C(=O)CCCC2=O)c([N+](=O)[O-])c1 [Mesotrione]
inhibition at 15 g/ha ([3]; 504 h, 21 days after treatment, 15 g/ha, read-out: Growth inhibition rate (%) of days after treatment, Measured value): 5%

CCNc1nc(Cl)nc(NC(C)(C)C)n1 [Terbuthylazine, terbuthylazine]
inhibition at 250 g/ha ([3]; 192 h, 8 days after treatment, 250 g/ha, read-out: Growth inhibition rate (%) Measured value): 10%
inhibition at 125 g/ha [3, 6]: 0%

COC(=O)c1sccc1S(=O)(=O)NC(=O)Nc1nc(C)nc(OC)n1 [Thifensulfuron-methyl]
inhibition at 5 g/ha ([3]; 504 h, 21 days after treatment, 5 g/ha, read-out: Growth inhibition rate (%) of days after treatment, Measured value): 0%
